The source of these data is patent US20220372448A1, “CELL LINE AND PRODUCING METHOD THEREOF” (University of Yamanashi, priority 2021, published 2022).

This test has as its system replicon replication in VeroE6/Rep #3 cells. In kind it is cell-based, SARS-CoV-2. As to conditions: 72 hours.

For the compound `CC(C)C(=O)OC[C@H]1O[C@@H](n2ccc(NO)nc2=O)[C@H](O)[C@@H]1O` [EIDD-2801, molnupiravir], the “effectiveness rate = (Replicon replication level)/(Cell survival rate)” value is recorded as “about 0.2” and the “luciferase activity (index of the replicon replication level) compared with DMSO negative control” value is given as “significantly decreased”.
